Assay results reported in paper PMC8518114, “Safety, tolerability and pharmacokinetics of emodepside, a potential novel treatment for onchocerciasis (river blindness), in healthy male subjects” (British Journal of Clinical Pharmacology, 2021).
Read-outs that look alike come from different tables or passages of the source.

Assays:
[1] = rat, in vivo; cited from earlier work
Excerpt: This is in line with nonclinical PK studies in rats and dogs, in which emodepside volume ...

[2] = Plasma pharmacokinetics of emodepside, multiple ascending dose (MAD) study; format: in vivo, human; conditions: for AUC 0–24 /D / C max /D / AUC last /D / t ½ 0–24 (dominant half-life) / AUC 0–24 / Cmax: mean (CV%); for t ½ 0–24 (dominant half-life): Day 10, terminal slope of log concentration–time (0–24 hr) curve; for Cmax/Ctrough ratio: after the last dose on Day 10; for MRT: Day 1, mean (CV%); for AUC 0–24 / Cmax: HPLC-MS/MS; for CL/F: read-out: CL ss /F (converted); for Vd/F: read-out: V z /F; for half-life: read-out: Terminal t ½ (converted)
Protocol: Emodepside and placebo were supplied as a LSF and a standard immediate‐release (IR) tablet. The LSF was a 0.1% (w/v) solution containing 1 mg emodepside/mL. Conventional IR tablets containing emodepside in crystalline form were supplied in 2 dosage strengths, 5 and 20 mg, for the single ascending dose (SAD) study.
Blood samples (5 mL) were collected by venepuncture or via a cannula into EDTA tubes and immediately placed on ice. Samples were centrifuged at 1500 g for 10 minutes at 4°C. The plasma was aliquoted into 2 polypropylene tubes, which were stored at −20°C. Blood samples for PK analysis were taken at the following time points: • SAD: predose and 0.5, 1, 1.5, 2, 2.5, 3, 4, 5, 6, 8, 12, 24, 36, 48, 72, 96, 120, 144 and 168 hours, and 21 days postdose (cohort 1–9) or predose and 0.5, 1, 3, 6, 8, 12, 24, 36, 48, 72, 96, 120, 144 and 168 hours, and 10, 14, 18 and 21 days postdose (cohort 10). • Multiple ascending dose (MAD), as below: • on Day 1: predose and at 0.25, 0.5, 1, 1.5, 2, 2.5, 3, 4, 6, 8, 12 and 15 hours postdose • on Days 2–9: before the morning dose • on Day 10: before and at 0.25, 0.5, 1, 1.5, 2, 2.5, 3, 4, 6, 8, 12 and 15 hours • on Days 11, 12, 13, 14, 15, 18, 21, 24 and 30.
Emodepside plasma concentrations were determined by a validated high performance liquid chromatography–tandem mass spectrometry assay, using a Alltima C18 5 μm 150 mm x 2.1 mm column and an Applied Biosystems API4000 Turbo Ion Spray detector using positive ion mode. Analyst version 1.3.2 or 1.6.3 software, obtained from AB Sciex UK Ltd, Warrington, UK was used for chromatogram data analysis and quantitative calculations. Deuterated emodepside‐D16 was used as the internal standard. The lower limit of quantitation for emodepside in plasma was 1 ng/mL. Values below this limit were not used to calculate the PK parameters, except values that were below the limit of quantification before Cmax, which were set to zero.
The highest observed plasma concentration (Cmax) was determined directly from concentration–time data, as was the time to reach maximum plasma concentration (tmax). The area under the plasma concentration–time curve from time zero (predose) to the time of last quantifiable concentration (AUC0‐last) was calculated using the linear‐log trapezoidal rule. Elimination half‐life (t1/2) was calculated by the equation ln2/λz.
Statistical analyses were performed using SAS version 9.3 (Cary, NC, USA). Demographic data and baseline characteristics were listed and summarised. […] PK parameters were derived from plasma concentration vs. time data using a noncompartmental analysis in Phoenix WinNonlin version 7 (Certara Inc., Princeton, NJ, USA). Plasma concentration vs. time data and PK parameters were listed, and summarised by treatment, using descriptive statistics. Mean concentrations were calculated only if at least ⅔ of the individual concentrations were above the lower limit of quantification. […] Planned sampling times were used to summarise plasma‐concentration data; actual sampling times were used in the derivation of PK parameters.

[3] = 5 mg OD LSF fasting, Day 1, dose-normalised
[4] = 5 mg OD LSF fasting, Day 10, dose-normalised
[5] = 10 mg BID LSF fasting, Day 1, dose-normalised
[6] = 10 mg BID LSF fasting, Day 10, dose-normalised
[7] = 10 mg OD LSF fasting, Day 1, dose-normalised
[8] = 10 mg OD LSF fasting, Day 10, dose-normalised
[9] = human, plasma, po, 5 mg, 5 mg OD LSF fasting, Day 1, plasma
[10] = human, plasma, po, 5 mg, 5 mg OD LSF fasting, Day 10, mean (CV%)
[11] = human, plasma, po, 5 mg, 5 mg OD LSF fasting, Day 10, plasma
[12] = human, plasma, po, 10 mg, 10 mg BID LSF fasting, Day 1, plasma
[13] = human, plasma, po, 10 mg, 10 mg BID LSF fasting, Day 10, mean (CV%)
[14] = human, plasma, po, 10 mg, 10 mg BID LSF fasting, Day 10, plasma
[15] = human, plasma, po, 10 mg, 10 mg OD LSF fasting, Day 1, plasma
[16] = human, plasma, po, 10 mg, 10 mg OD LSF fasting, Day 10, mean (CV%)
[17] = human, plasma, po, 10 mg, 10 mg OD LSF fasting, Day 10, plasma

Structure (SMILES): CC(C)C[C@H]1C(=O)O[C@H](Cc2ccc(N3CCOCC3)cc2)C(=O)N(C)[C@@H](CC(C)C)C(=O)O[C@H](C)C(=O)N(C)[C@@H](CC(C)C)C(=O)O[C@H](Cc2ccc(N3CCOCC3)cc2)C(=O)N(C)[C@@H](CC(C)C)C(=O)O[C@H](C)C(=O)N1C [emodepside]
- Radioactivity levels in tissues vs blood, radio-labelled emodepside [1]: higher in most tissues than in the blood
- AUC 0–24 /D [2, 3]: 115 (19.7) [h.ng/mL]/mg
- C max /D [2, 3]: 18.8 (17.8) [ng/mL]/mg
- Tmax ([2]; 5 mg OD LSF fasting, Day 1, median (range)): 1.00 (1.00–1.07) h
- AUC 0–24 /D [2, 4]: 338 (31.3) [h.ng/mL]/mg
- AUC last /D [2, 4]: 3872 (29.9) [h.ng/mL]/mg
- C max /D [2, 4]: 29.9 (17.9) [ng/mL]/mg
- λ z ([2]; 5 mg OD LSF fasting, Day 10, mean (CV%)): 0.00166 (42.6) 1/h
- Terminal t ½ ([2]; 5 mg OD LSF fasting, Day 10, mean (CV%), geometric mean): 419 (42.6) h
- Tmax ([2]; 5 mg OD LSF fasting, Day 10, median (range)): 1.00 (1.00–1.50) h
- t ½ 0–24 (dominant half-life) ([2]; 5 mg OD LSF fasting): 26.9 (52.4) h
- AUC 0–24 /D [2, 5]: 71.4 (26.5) [h.ng/mL]/mg
- C max /D [2, 5]: 16.0 (20.4) [ng/mL]/mg
- Tmax ([2]; 10 mg BID LSF fasting, Day 1, median (range)): 1.00 (1.00–1.58) h
- AUC 0–24 /D [2, 6]: 490 (35.8) [h.ng/mL]/mg
- AUC last /D [2, 6]: 5955 (29.1) [h.ng/mL]/mg
- C max /D [2, 6]: 34.9 (27.1) [ng/mL]/mg
- λ z ([2]; 10 mg BID LSF fasting, Day 10, mean (CV%)): 0.00137 (56.9) 1/h
- t ½ 0–24 (dominant half-life) ([2]; 10 mg BID LSF fasting): 33.2 (55.0) h
- Cmax/Ctrough ratio ([2]; 10 mg BID LSF): 1.9
- AUC 0–24 /D [2, 7]: 113 (32.7) [h.ng/mL]/mg
- C max /D [2, 7]: 18.6 (21.3) [ng/mL]/mg
- AUC 0–24 /D [2, 8]: 349 (44.2) [h.ng/mL]/mg
- AUC last /D [2, 8]: 4065 (43.5) [h.ng/mL]/mg
- C max /D [2, 8]: 28.7 (39.7) [ng/mL]/mg
- λ z ([2]; 10 mg OD LSF fasting, Day 10, mean (CV%)): 0.00154 (30.6) 1/h
- Tmax ([2]; 10 mg OD LSF fasting, Day 10, median (range)): 1.25 (1.00–2.00) h
- t ½ 0–24 (dominant half-life) ([2]; 10 mg OD LSF fasting): 18.4 (30.0) h
- Cmax/Ctrough ratio ([2]; 10 mg OD LSF): 3.0
- Emodepside levels at the final sampling timepoint ([2]; 507 hours after the last morning dose, LLOQ 1 ng/mL): still quantifiable in all subjects
- Geometric mean Cmax on Day 10, 10 mg BID group vs 10 mg OD group ([2]; LSF): 1.2 fold
- MRT ([2]; human, plasma, po, 5 mg, 5 mg OD LSF fasting): 7.28 h
- AUC 0–24 [2, 9]: 574 ng·h/mL
- Cmax [2, 9]: 93.8 ng/mL
- CL/F [2, 10]: 49.3 mL/min
- Vd/F [2, 10]: 1790 L
- AUC 0–24 [2, 11]: 1690 ng·h/mL
- Cmax [2, 11]: 149 ng/mL
- MRT ([2]; human, plasma, po, 10 mg, 10 mg BID LSF fasting): 10.8 h
- AUC 0–24 [2, 12]: 1430 ng·h/mL
- Cmax [2, 12]: 160 ng/mL
- half-life ([2]; human, plasma, po, 10 mg, 10 mg BID LSF fasting, Day 10, mean (CV%), geometric mean): 508 h
- CL/F [2, 13]: 59.3 mL/min
- Vd/F [2, 13]: 2610 L
- Tmax ([2]; human, plasma, po, 10 mg, 10 mg BID LSF fasting, Day 10, median (range), read-out: t max): 1.5 h
- AUC 0–24 [2, 14]: 4900 ng·h/mL
- Cmax [2, 14]: 349 ng/mL
- MRT ([2]; human, plasma, po, 10 mg, 10 mg OD LSF fasting): 7 h
- Tmax ([2]; human, plasma, po, 10 mg, 10 mg OD LSF fasting, Day 1, median (range), read-out: t max): 1.25 h
- AUC 0–24 [2, 15]: 1140 ng·h/mL
- Cmax [2, 15]: 186 ng/mL
- half-life ([2]; human, plasma, po, 10 mg, 10 mg OD LSF fasting, Day 10, mean (CV%), geometric mean): 450 h
- CL/F [2, 16]: 47.8 mL/min
- Vd/F [2, 16]: 1860 L
- AUC 0–24 [2, 17]: 3490 ng·h/mL
- Cmax [2, 17]: 287 ng/mL
